{
  "source": "patent US10294202B2",
  "about": "“Pyrrolidinones as herbicides” (FMC Corporation, priority 2013, dated 2019)",
  "key": {"johnsongrass": {"tested_on": "johnsongrass", "test": "Test E preemergence herbicide test", "type": "in vivo, Sorghum halepense", "set-up": "key: 0 = no effect, 100 = complete control", "source_text": "(§1) Seeds of plant species selected from corn (Zea mays), soybean (Glycine max), velvetleaf (Abutilon theophrasti), lambsquarters (Chenopodium album), wild poinsettia (Euphorbia heterophylla), pigweed, palmer (palmer pigweed, Amaranthus palmeri), waterhemp (common waterhemp, Amaranthus rudis), surinam grass (Brachiaria decumbens), crabgrass, large (large crabgrass, Digitaria sanguinalis), crabgrass, Brazil (Brazilian crabgrass, Digitaria horizontalis), panicum, fall (fall panicum, Panicum dichotomiflorum), foxtail, giant (giant foxtail, Setaria faberii), foxtail, green (green foxtail, Setaria viridis), goosegrass (Eleusine indica), johnsongrass (Sorghum halepense), ragweed (common ragweed, Ambrosia elatior), barnyardgrass (Echinochloa crus-galli), sandbur (southern sandbur, Cenchrus echinatus), arrowleaf […] rhombifolia), ryegrass, Italian (Italian ryegrass, Lolium multiflorum), dayflower, VA (Virginia dayflower, Commelina virginica), field bindweed (Convolvulus arvensis), morningglory (Ipomoea coccinea), nightshade (eastern black nightshade, Solanum ptycanthum), kochia (Kochia scoparia), nutsedge, yellow (yellow nutsedge, Cyperus esculentus), cocklebur (common cocklebur, Xanthium strumarium), smartweed (ladysthumb smartweed, Polygonum Persicaria) and beggarticks (hairy beggarticks, Bidens pilosa), were planted into a silt loam soil and treated preemergence with test chemicals formulated in a non-phytotoxic solvent mixture which included a surfactant. Treated plants and controls were maintained in a greenhouse for 21 days, after which time all species were compared to controls and visually evaluated. Plant response ratings, summarized in Table E, are based on a scale of 0 to 100 where 0 is no effect and 100 is complete control. A dash (-) response means no test result."}, "sandbur": {"tested_on": "sandbur", "test": "Test E preemergence herbicide test", "type": "in vivo, Cenchrus echinatus", "set-up": "key: 0 = no effect, 100 = complete control", "source_text": "as §1"}, "soybean": {"tested_on": "soybean", "test": "Test E preemergence herbicide test", "type": "in vivo, Glycine max", "set-up": "key: 0 = no effect, 100 = complete control", "source_text": "as §1"}, "barnyardgrass": {"tested_on": "barnyardgrass", "test": "Test E preemergence herbicide test", "type": "in vivo, Echinochloa crus-galli", "set-up": "key: 0 = no effect, 100 = complete control", "source_text": "as §1"}, "chickweed": {"tested_on": "chickweed", "test": "Test D pre-/postemergence herbicide test", "type": "in vivo, Stellaria media", "conditions": "Postemergence, Chickweed, scale 0 to 100", "source_text": "(§2) Seeds of plant species selected from bluegrass (annual bluegrass, Poa annua), blackgrass (Alopecurus myosuroides), canarygrass (littleseed canarygrass, Phalaris minor), chickweed (common chickweed, Stellaria media), galium (catchweed bedstraw, Galium aparine), bromegrass, downy (downy bromegrass, Bromus tectorum), field poppy (Papaver rhoeas), field violet (Viola arvensis), foxtail, green (green foxtail, Setaria viridis), deadnettle (henbit deadnettle, Lamium amplexicaule), ryegrass, Italian (Italian ryegrass, Lolium multiflorum), kochia (Kochia scoparia), lambsquarters (Chenopodium album), oilseed rape (Brassica napus), pigweed (Amaranthus retroflexus), chamomile (scentless chamomile, Matricaria inodora), Russian thistle (Salsola kali), speedwell (bird's-eye speedwell, Veronica persica), barley, spring (spring barley, Hordeum vulgare), wheat, spring (spring wheat, Triticum aestivum), buckwheat, wild (wild buckwheat, Polygonum convolvulus), mustard, wild (wild mustard, Sinapis arvensis), oat, wild (wild oat, Avena fatua), radish, wild (wild radish, Raphanus raphanistrum), […]), barley, winter (winter barley, Hordeum vulgare), and wheat, winter (winter wheat, Triticum aestivum) were planted into a silt loam soil and treated preemergence with test chemicals formulated in a non-phytotoxic solvent mixture which included a surfactant. At the same time, these species were planted in pots containing Redi-Earth® planting medium (Scotts Company, 14111 Scottslawn Road, Marysville, Ohio 43041) comprising spaghnum peat moss, vermiculite, wetting agent and starter nutrients and treated with postemergence applications of the test chemicals formulated in the same manner. Plants ranged in height from 2 to 18 cm (1- to 4-leaf stage). Treated plants and controls were maintained in a controlled growth environment for 7 to 21 days after which time all species were compared to controls and visually evaluated. Plant response ratings, summarized in Table D, are based on a scale of 0 to 100 where 0 is no effect and 100 is complete control. A dash (-) response means no test result."}, "bromegrass, downy": {"tested_on": "bromegrass, downy", "test": "Test D pre-/postemergence herbicide test", "type": "in vivo, Bromus tectorum", "conditions": "Postemergence, Bromegrass, Downy, scale 0 to 100", "in_short": "(§3)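 Seeds sown in silt loam were sprayed preemergence with test chemicals in a non-phytotoxic solvent mixture with surfactant. Postemergence plants grown in peat/vermiculite medium were treated at 2–18 cm (1- to 4-leaf stage). After 7 to 21 days in a controlled environment, injury was rated visually versus controls, 0 (no effect) to 100 (complete control).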"}, "Russian thistle": {"tested_on": "Russian thistle", "test": "Test D pre-/postemergence herbicide test", "type": "in vivo, Salsola kali", "conditions": "Postemergence, Russian Thistle, scale 0 to 100", "in_short": "as §3"}, "field violet": {"tested_on": "field violet", "test": "Test D pre-/postemergence herbicide test", "type": "in vivo, Viola arvensis", "conditions": "Postemergence, Field Violet, scale 0 to 100", "source_text": "as §2"}, "wheat, winter": {"tested_on": "wheat, winter", "test": "Test D pre-/postemergence herbicide test", "type": "in vivo, Triticum aestivum", "conditions": "Postemergence, Wheat, Winter, scale 0 to 100", "in_short": "as §3"}, "wheat, spring": {"tested_on": "wheat, spring", "test": "Test D pre-/postemergence herbicide test", "type": "in vivo, Triticum aestivum", "conditions": "Postemergence, Wheat, Spring, scale 0 to 100", "in_short": "as §3"}, "radish, wild": {"tested_on": "radish, wild", "test": "Test D pre-/postemergence herbicide test", "type": "in vivo, Raphanus raphanistrum", "conditions": "Postemergence, Radish, Wild, scale 0 to 100", "in_short": "as §3"}, "foxtail, green": {"tested_on": "foxtail, green", "test": "Test D pre-/postemergence herbicide test", "type": "in vivo, Setaria viridis", "conditions": "Postemergence, Foxtail, Green, scale 0 to 100", "source_text": "as §2"}},
  "data": [
    {"smiles": "O=C1NCC(c2cccc(Br)c2)C1C(=O)Nc1ccccc1F", "note": "(stereo not drawn) [Compound 66]", "values": [
      {"measurement": "Plant response rating, Johnsongrass", "setting": "johnsongrass; 16 g ai/ha", "result": 0},
      {"measurement": "Plant response rating, Johnsongrass", "setting": "johnsongrass; 31 g ai/ha", "result": 0},
      {"measurement": "Plant response rating, Johnsongrass", "setting": "johnsongrass; 62 g ai/ha", "result": 0},
      {"measurement": "Plant response rating, Johnsongrass", "setting": "johnsongrass; 125 g ai/ha", "result": 0},
      {"measurement": "Plant response rating, Johnsongrass", "setting": "johnsongrass; 250 g ai/ha", "result": 0},
      {"measurement": "Plant response rating, Sandbur", "setting": "sandbur; 16 g ai/ha", "result": 0},
      {"measurement": "Plant response rating, Sandbur", "setting": "sandbur; 31 g ai/ha", "result": 0},
      {"measurement": "Plant response rating, Sandbur", "setting": "sandbur; 62 g ai/ha", "result": 0},
      {"measurement": "Plant response rating, Sandbur", "setting": "sandbur; 125 g ai/ha", "result": 0},
      {"measurement": "Plant response rating, Sandbur", "setting": "sandbur; 250 g ai/ha", "result": 35},
      {"measurement": "Plant response rating, Soybean", "setting": "soybean; 16 g ai/ha", "result": 0},
      {"measurement": "Plant response rating, Soybean", "setting": "soybean; 31 g ai/ha", "result": 0},
      {"measurement": "Plant response rating, Soybean", "setting": "soybean; 62 g ai/ha", "result": 0},
      {"measurement": "Plant response rating, Soybean", "setting": "soybean; 125 g ai/ha", "result": 0},
      {"measurement": "Plant response rating, Soybean", "setting": "soybean; 250 g ai/ha", "result": 0},
      {"measurement": "Plant response rating, Barnyardgrass", "setting": "barnyardgrass; 16 g ai/ha", "result": 0},
      {"measurement": "Plant response rating, Barnyardgrass", "setting": "barnyardgrass; 31 g ai/ha", "result": 0},
      {"measurement": "Plant response rating, Barnyardgrass", "setting": "barnyardgrass; 62 g ai/ha", "result": 20},
      {"measurement": "Plant response rating, Barnyardgrass", "setting": "barnyardgrass; 125 g ai/ha", "result": 50},
      {"measurement": "Plant response rating, Barnyardgrass", "setting": "barnyardgrass; 250 g ai/ha", "result": 50}
    ]},
    {"smiles": "O=C1NCC(c2cc(F)c(F)c(F)c2)C1C(=O)Nc1ccccc1C(F)(F)F", "note": "(racemic) [Compound 33]", "values": [
      {"measurement": "Plant response rating", "setting": "chickweed; 16 g ai/ha", "result": 0},
      {"measurement": "Plant response rating", "setting": "chickweed; 31 g ai/ha", "result": 0},
      {"measurement": "Plant response rating", "setting": "chickweed; 62 g ai/ha", "result": 0},
      {"measurement": "Plant response rating", "setting": "chickweed; 125 g ai/ha", "result": 10},
      {"measurement": "Plant response rating", "setting": "chickweed; 250 g ai/ha", "result": 10},
      {"measurement": "Plant response rating", "setting": "bromegrass, downy; 16 g ai/ha", "result": 0},
      {"measurement": "Plant response rating", "setting": "bromegrass, downy; 31 g ai/ha", "result": 0},
      {"measurement": "Plant response rating", "setting": "bromegrass, downy; 62 g ai/ha", "result": 0},
      {"measurement": "Plant response rating", "setting": "bromegrass, downy; 125 g ai/ha", "result": 0},
      {"measurement": "Plant response rating", "setting": "bromegrass, downy; 250 g ai/ha", "result": 0},
      {"measurement": "Plant response rating", "setting": "Russian thistle; 16 g ai/ha", "result": 0},
      {"measurement": "Plant response rating", "setting": "Russian thistle; 31 g ai/ha", "result": 0},
      {"measurement": "Plant response rating", "setting": "Russian thistle; 62 g ai/ha", "result": 0},
      {"measurement": "Plant response rating", "setting": "Russian thistle; 125 g ai/ha", "result": 0},
      {"measurement": "Plant response rating", "setting": "Russian thistle; 250 g ai/ha", "result": 0},
      {"measurement": "Plant response rating", "setting": "field violet; 16 g ai/ha", "result": 0},
      {"measurement": "Plant response rating", "setting": "field violet; 31 g ai/ha", "result": 0},
      {"measurement": "Plant response rating", "setting": "field violet; 62 g ai/ha", "result": 0},
      {"measurement": "Plant response rating", "setting": "field violet; 125 g ai/ha", "result": 0},
      {"measurement": "Plant response rating", "setting": "field violet; 250 g ai/ha", "result": 0},
      {"measurement": "Plant response rating", "setting": "wheat, winter; 16 g ai/ha", "result": 0},
      {"measurement": "Plant response rating", "setting": "wheat, winter; 31 g ai/ha", "result": 0},
      {"measurement": "Plant response rating", "setting": "wheat, winter; 62 g ai/ha", "result": 0},
      {"measurement": "Plant response rating", "setting": "wheat, winter; 125 g ai/ha", "result": 0},
      {"measurement": "Plant response rating", "setting": "wheat, winter; 250 g ai/ha", "result": 0},
      {"measurement": "Plant response rating", "setting": "wheat, spring; 16 g ai/ha", "result": 0},
      {"measurement": "Plant response rating", "setting": "wheat, spring; 31 g ai/ha", "result": 0},
      {"measurement": "Plant response rating", "setting": "wheat, spring; 62 g ai/ha", "result": 0},
      {"measurement": "Plant response rating", "setting": "wheat, spring; 125 g ai/ha", "result": 0},
      {"measurement": "Plant response rating", "setting": "wheat, spring; 250 g ai/ha", "result": 0},
      {"measurement": "Plant response rating", "setting": "radish, wild; 16 g ai/ha", "result": 0},
      {"measurement": "Plant response rating", "setting": "radish, wild; 31 g ai/ha", "result": 0},
      {"measurement": "Plant response rating", "setting": "radish, wild; 62 g ai/ha", "result": 0},
      {"measurement": "Plant response rating", "setting": "radish, wild; 125 g ai/ha", "result": 0},
      {"measurement": "Plant response rating", "setting": "radish, wild; 250 g ai/ha", "result": 0},
      {"measurement": "Plant response rating", "setting": "foxtail, green; 16 g ai/ha", "result": 0},
      {"measurement": "Plant response rating", "setting": "foxtail, green; 31 g ai/ha", "result": 0},
      {"measurement": "Plant response rating", "setting": "foxtail, green; 62 g ai/ha", "result": 0},
      {"measurement": "Plant response rating", "setting": "foxtail, green; 125 g ai/ha", "result": 0},
      {"measurement": "Plant response rating", "setting": "foxtail, green; 250 g ai/ha", "result": 0}
    ]}
  ]
}
